Experimental findings from ChEMBL document CHEMBL1201862, “PubChem BioAssay data set” (2004) are described below.

The nature of one experiment: cells. It counts as functional.
Experiment [1] deals with T1, Zinc finger protein mex-5 (Caenorhabditis elegans, UniProt Q9XUB2).
T1 sequence (Q9XUB2 whole entry): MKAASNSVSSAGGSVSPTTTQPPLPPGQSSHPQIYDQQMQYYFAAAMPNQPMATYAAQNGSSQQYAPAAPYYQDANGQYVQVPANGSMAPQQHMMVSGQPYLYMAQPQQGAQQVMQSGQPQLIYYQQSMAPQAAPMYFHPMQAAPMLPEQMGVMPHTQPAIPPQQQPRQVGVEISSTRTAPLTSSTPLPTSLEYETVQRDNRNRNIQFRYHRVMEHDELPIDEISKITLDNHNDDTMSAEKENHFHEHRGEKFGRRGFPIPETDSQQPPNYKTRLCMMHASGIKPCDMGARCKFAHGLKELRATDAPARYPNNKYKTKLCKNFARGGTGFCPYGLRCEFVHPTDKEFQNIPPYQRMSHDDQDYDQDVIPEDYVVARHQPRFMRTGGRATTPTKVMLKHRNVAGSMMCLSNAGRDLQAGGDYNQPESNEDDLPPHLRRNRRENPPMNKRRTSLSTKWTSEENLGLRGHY
The experiment can be described thus: MEX-5/TCR-2 RNA interaction inhibitors, dose response, biochemical, C. elegans, fluorescence polarization (AID 1960).

Experiment [2] concerns the target T2, RNA-binding protein pos-1 (Caenorhabditis elegans, UniProt G5EF15).
T2 sequence (G5EF15 whole entry): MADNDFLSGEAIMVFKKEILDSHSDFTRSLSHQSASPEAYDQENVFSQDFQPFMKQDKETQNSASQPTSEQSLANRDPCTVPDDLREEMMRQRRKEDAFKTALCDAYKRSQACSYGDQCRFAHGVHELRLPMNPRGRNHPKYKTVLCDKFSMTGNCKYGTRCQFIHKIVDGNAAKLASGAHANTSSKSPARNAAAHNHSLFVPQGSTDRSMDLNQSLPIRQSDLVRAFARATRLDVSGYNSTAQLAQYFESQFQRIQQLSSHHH
The experiment can be described thus: inhibitors of POS-1/mex-3 RNA binding, dose response, biochemical, fluorescence polarization (AID 1964).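 Also: purified POS-1 fused to maltose binding protein made in E. coli; potency of compounds blocking POS-1 binding to fluorescent RNA.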

Experiment [3] addresses T3, Heat shock factor protein 1 (Mus musculus, UniProt P38532).
T3 sequence (P38532 whole entry): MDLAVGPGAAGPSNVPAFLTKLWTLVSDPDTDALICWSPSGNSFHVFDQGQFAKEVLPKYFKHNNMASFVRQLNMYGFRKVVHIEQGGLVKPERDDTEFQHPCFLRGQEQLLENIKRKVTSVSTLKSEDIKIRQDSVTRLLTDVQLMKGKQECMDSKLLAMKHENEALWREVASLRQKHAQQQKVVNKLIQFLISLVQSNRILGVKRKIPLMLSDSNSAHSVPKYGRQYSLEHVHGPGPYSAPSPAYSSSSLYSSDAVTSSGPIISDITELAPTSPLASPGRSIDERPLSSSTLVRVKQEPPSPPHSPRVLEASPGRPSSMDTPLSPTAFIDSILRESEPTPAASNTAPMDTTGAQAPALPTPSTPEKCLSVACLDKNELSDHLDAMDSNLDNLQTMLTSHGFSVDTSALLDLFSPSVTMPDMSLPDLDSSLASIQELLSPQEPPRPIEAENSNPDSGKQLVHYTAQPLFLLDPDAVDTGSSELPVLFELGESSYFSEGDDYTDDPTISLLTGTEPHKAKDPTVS
The experiment can be described thus: inhibition of MG132-induced HSE-luciferase signal, confirmation, cell-based, NIH3T3, luminescence, dose retest (AID 2382).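 Also: NIH3T3 fibroblasts with HSF1-driven luciferase reporter stressed by proteasome inhibitor MG132; luminescence from HSF1-driven luciferase expression after 8 hours of MG132 stress.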 It counts as functional.

Experiment [4] is described as follows: microbe, parasite or virus in culture. It counts as functional. As to conditions: Mycobacterium tuberculosis.
For a further experiment, the target named is Nonstructural protein 1 (Influenza A virus, UniProt Q194T2). It is filed as functional, Influenza A virus (A/California/07/2009(H1N1)).
A short description of experiment [5]: cytotoxicity toward NIH3T3 fibroblasts, dose response, counter-screen, cell-based, ATP luminescence, mouse fibroblasts (AID 2010).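 Also: cells exposed to compound for about 90 hours before reading.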 It is filed as functional.
Experiment [6] can be described thus: inhibitors of intracellular T. cruzi replication, confirmation, NIH3T3 host cells, beta-gal luminescence (AID 2044).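 Also: intracellular parasites grown in NIH/3T3 mouse fibroblasts as host cells; luminescent beta-galactosidase reporter signal from transgenic T. cruzi replicating inside host cells; inhibitors lower the luminescence signal.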 It counts as functional, cell-based.
A short description of experiment [7]: A cytotoxicity screen of small molecule inhibitors of the PhoP region in Salmonella typhi identified in the primary screen. [Related pubchem assays: 1850, 1864, 1985 ]. It is filed as functional.
The target of experiment [8] is Voltage-dependent T-type calcium channel subunit alpha-1H (Homo sapiens, UniProt O95180). It is filed as functional.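 Also: channel activity triggered by adding a high calcium stimulation buffer.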
Experiment [9] addresses Glyceraldehyde-3-phosphate dehydrogenase (Homo sapiens, UniProt P04406).
Experiment [10] is described as follows: Luminescence Cell-Based Dose Confirmation HTS to Identify Inhibitors of Platelet Dense Granule Release. [Related pubchem assays: 1663 (Primary HTS), 1678 (Summary of Project)]. It is filed as functional.
Experiment [11] deals with Luciferin 4-monooxygenase (Photinus pyralis, UniProt P08659). The experiment can be described thus: firefly luciferase enzyme inhibitors, dose response, biochemical, luminescence (AID 1891).
Experiment [12] can be described thus: Luminescence Cell-Based Dose Response HTS to Identify Activators of Luciferase Translation or Activity in H4 […] Cells. [Related pubchem assays: 1829 (Project Summary), 1814 (Primary HTS)]. It is filed as functional.
A further experiment concerns H4. The experiment can be described thus: Luminescence Cell-Based Dose Response HTS to Identify Activators of 5'UTR Stem-Loop Driven Prion Protein mRNA Translation in H4 Neuroglioblastoma Cells. [Related pubchem assays: 1829 (Project Summary), 1814 (Primary HTS)]. It is filed as functional. The settings on record: Homo sapiens.
In experiment [13] the target is T4, Ubiquitin-conjugating enzyme E2 N (Homo sapiens, UniProt P61088).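 Also: Dose-response confirmation in a TR-FRET assay detecting UBC13-driven polyubiquitin chain formation, inhibition measured.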
T4 sequence (P61088 whole entry): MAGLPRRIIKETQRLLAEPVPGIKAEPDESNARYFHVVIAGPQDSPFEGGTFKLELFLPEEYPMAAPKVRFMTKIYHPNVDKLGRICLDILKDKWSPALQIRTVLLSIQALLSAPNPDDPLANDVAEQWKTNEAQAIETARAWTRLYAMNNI
It is filed as functional.

Experiment [14] concerns the target T3, Heat shock factor protein 1. The experiment can be described thus: HSF1 potentiators in luciferase reporter cells, confirmation, cell-based, NIH3T3, luminescence, dose retest (AID 435004).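 Also: stress induced by proteasome inhibitor MG132 added 30 min after compound; luciferase reporter driven by HSF1 response element in NIH3T3 cells; actives raise luminescence as potentiators of the MG132 stress response.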 It counts as functional.
In a further experiment the target is T5, Streptokinase A (Streptococcus pyogenes serotype M1, UniProt P10520).
T5 sequence (P10520 whole entry): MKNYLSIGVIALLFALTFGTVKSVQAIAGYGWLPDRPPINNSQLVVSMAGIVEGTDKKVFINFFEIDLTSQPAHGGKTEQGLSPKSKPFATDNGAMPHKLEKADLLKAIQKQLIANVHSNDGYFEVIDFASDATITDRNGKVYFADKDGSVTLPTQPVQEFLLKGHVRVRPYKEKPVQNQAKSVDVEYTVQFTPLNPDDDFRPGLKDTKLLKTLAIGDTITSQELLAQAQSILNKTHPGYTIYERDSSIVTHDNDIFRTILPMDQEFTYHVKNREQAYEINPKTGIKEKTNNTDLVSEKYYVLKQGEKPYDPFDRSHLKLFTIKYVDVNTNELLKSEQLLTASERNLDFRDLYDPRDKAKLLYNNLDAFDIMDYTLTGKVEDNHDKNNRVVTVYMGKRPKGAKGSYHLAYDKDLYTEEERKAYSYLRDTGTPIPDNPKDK
The experiment can be described thus: S. pyogenes streptokinase expression inhibitors, potency, dose response, plasminogen activation absorbance, OD405 (AID 1914).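 Also: secreted streptokinase activity via plasminogen activation per viability signal from cell pellet.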 It counts as functional, Streptococcus pyogenes M1 GAS.

Experiment [15] addresses T6, DNA repair protein RAD52 homolog (Homo sapiens, UniProt P43351).
T6 sequence (P43351 whole entry): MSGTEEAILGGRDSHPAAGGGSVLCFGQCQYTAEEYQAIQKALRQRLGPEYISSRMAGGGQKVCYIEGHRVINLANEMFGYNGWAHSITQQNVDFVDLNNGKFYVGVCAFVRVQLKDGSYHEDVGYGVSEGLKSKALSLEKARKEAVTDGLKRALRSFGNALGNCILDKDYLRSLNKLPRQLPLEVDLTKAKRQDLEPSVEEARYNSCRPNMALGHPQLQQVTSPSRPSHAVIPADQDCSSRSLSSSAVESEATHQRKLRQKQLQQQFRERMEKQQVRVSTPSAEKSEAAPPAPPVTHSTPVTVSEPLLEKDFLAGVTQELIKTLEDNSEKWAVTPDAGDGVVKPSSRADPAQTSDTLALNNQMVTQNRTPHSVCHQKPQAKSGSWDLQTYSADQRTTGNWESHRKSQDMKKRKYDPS
It is filed as functional, biochemical.

Experiment [16] has as its system Streptococcus sp. 'group A'. The experiment can be described thus: growth inhibition of control SK(-) GAS strain, dose response, counter-screen for streptokinase expression inhibitor project, luminescence, kanamycin, BacTiterGlo, confirmation (AID 1900). It counts as functional, organism-based.
The next experiment concerns Streptococcus. The experiment can be described thus: Group A Streptococcus viability loss, dose response, counter-screen for streptokinase expression inhibitor project, luminescence, BacTiterGlo (AID 1915).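 Also: potency for reduction of bacterial viability or growth.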 It counts as functional, organism-based.

Activity calls are given as the source filed them.

Sequence of Voltage-dependent T-type calcium channel subunit alpha-1H (O95180 whole entry): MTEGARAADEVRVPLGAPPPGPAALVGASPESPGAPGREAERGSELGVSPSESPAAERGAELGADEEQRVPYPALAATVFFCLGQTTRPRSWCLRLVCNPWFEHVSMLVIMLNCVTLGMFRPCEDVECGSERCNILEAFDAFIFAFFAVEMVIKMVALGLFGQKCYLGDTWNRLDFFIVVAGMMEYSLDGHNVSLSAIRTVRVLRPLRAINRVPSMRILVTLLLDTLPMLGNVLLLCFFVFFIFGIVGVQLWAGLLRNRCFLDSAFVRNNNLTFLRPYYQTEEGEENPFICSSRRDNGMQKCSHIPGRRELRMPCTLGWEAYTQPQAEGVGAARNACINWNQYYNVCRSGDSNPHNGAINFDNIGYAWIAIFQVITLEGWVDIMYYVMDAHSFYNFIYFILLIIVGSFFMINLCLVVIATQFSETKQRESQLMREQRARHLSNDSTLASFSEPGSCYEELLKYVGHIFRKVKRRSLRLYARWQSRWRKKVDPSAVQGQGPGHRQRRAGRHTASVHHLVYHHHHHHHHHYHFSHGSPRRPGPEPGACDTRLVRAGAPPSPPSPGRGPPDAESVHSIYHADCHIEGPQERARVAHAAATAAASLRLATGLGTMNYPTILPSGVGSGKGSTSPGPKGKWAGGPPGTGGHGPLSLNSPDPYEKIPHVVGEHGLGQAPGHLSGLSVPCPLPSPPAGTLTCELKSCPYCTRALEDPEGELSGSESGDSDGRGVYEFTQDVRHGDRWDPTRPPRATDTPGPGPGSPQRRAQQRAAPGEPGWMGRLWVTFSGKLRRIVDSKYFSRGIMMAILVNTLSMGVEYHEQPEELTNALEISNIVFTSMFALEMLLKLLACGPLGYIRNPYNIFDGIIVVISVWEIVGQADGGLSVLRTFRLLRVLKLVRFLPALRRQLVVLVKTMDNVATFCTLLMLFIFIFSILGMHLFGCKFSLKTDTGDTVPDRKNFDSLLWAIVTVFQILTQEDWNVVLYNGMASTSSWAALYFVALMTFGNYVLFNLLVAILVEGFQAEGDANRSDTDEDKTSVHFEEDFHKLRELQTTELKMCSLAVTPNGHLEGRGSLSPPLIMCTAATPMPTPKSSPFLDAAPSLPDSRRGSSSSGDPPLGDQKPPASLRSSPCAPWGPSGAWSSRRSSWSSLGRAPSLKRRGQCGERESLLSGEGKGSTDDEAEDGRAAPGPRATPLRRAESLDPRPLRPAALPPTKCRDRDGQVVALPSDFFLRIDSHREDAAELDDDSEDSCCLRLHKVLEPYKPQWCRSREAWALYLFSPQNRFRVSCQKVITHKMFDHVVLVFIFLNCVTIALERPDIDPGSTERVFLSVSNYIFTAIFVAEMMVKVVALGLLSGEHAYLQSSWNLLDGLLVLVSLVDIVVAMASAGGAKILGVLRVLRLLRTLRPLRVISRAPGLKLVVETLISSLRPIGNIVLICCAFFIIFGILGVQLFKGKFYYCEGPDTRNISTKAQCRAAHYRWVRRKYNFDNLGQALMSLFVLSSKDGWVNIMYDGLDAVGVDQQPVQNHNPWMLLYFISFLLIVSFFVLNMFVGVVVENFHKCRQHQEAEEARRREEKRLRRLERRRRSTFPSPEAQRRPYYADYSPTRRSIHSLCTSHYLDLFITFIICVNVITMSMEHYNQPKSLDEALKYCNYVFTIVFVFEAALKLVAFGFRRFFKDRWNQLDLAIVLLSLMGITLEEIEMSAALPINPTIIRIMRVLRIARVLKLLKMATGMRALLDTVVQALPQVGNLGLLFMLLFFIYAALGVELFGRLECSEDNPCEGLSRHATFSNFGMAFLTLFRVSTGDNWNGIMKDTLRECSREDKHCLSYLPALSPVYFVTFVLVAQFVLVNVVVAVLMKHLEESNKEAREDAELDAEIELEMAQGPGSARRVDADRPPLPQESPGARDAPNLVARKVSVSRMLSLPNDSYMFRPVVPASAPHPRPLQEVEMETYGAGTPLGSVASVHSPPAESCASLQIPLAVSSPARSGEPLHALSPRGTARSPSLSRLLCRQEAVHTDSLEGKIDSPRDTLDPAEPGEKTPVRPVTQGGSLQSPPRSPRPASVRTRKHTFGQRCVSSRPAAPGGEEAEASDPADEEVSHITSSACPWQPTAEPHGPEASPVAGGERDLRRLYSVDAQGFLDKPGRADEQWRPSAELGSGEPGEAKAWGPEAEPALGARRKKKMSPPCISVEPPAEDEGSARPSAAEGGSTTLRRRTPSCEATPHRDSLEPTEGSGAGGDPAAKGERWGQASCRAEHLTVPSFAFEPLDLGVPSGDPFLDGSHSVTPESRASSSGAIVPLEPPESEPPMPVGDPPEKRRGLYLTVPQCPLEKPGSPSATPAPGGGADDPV
Sequence of Nonstructural protein 1 (Q194T2 whole entry): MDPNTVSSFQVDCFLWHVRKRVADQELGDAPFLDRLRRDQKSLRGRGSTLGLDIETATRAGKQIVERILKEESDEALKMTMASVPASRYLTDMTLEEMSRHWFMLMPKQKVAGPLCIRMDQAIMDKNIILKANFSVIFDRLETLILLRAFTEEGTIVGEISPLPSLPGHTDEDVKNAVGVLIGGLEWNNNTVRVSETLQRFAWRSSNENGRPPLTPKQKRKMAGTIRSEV
Sequence of Luciferin 4-monooxygenase (P08659 whole entry): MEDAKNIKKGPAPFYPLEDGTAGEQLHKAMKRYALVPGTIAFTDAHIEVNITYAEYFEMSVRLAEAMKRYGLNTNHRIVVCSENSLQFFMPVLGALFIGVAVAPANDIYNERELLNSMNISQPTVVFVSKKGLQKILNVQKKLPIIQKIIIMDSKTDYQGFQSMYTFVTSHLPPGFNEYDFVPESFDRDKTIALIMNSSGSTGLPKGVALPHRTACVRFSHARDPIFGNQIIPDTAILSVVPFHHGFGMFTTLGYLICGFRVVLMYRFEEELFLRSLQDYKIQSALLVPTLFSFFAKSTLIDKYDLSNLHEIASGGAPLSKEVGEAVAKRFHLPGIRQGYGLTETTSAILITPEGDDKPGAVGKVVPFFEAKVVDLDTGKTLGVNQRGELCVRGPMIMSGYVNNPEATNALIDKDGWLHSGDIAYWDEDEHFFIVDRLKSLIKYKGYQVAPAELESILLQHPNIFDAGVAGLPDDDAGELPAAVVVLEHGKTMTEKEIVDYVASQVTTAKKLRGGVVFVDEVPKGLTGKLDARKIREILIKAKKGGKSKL
Sequence of Glyceraldehyde-3-phosphate dehydrogenase (P04406 whole entry): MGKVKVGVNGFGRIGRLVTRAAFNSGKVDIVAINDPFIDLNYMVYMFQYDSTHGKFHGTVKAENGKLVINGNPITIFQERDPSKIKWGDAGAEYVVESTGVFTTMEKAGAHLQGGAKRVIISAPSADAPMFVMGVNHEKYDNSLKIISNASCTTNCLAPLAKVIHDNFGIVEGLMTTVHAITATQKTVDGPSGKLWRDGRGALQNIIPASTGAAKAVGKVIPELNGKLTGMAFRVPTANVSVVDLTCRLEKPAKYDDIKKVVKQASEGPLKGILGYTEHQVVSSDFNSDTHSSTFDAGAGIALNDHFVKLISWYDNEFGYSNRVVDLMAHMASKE

In the case of `COC(=O)COc1ccc2c(-c3ccc(OC)cc3)cc(=O)oc2c1`, the half-inhibitory concentration (IC50) in the experiment “cells” was 1.43 µM (active). Turning to `CN1Cc2c(c(C#N)c(N)n(C)c2=S)CC1(C)C`, the concentration giving a half-maximal response (EC50) in experiment [1] was 29.1 µM (active); in experiment [2] it was 35.4 µM (active). The like results for `CCN1C(=O)/C(=C/c2c(C)nn(C)c2C)SC1=S` were, in that order, 189 µM (inconclusive) and 254 µM (inconclusive).

Consider `CNC(=O)NC(=O)COC(=O)c1ccc(-n2c(C)ccc2C)cc1`, for which the EC50 is reported as > 195 µM (not active) in experiment [3], > 300 µM (not active) in [1] and > 300 µM (not active) in experiment [2].

In the case of `CN1CCN(/N=C/c2c3ccccc3c(Cl)c3ccccc23)CC1`, the CC50 in experiment [4] is 24 µM (active). In addition, the IC50 at Nonstructural protein 1 is 24.9 µM (active). Turning to `Cc1cccc(N2CCN(Cc3ccc([N+](=O)[O-])o3)CC2)c1C`, the concentration giving a half-maximal response (EC50) in [5] was > 60 µM (not active); in experiment [6], 1.36 µM (active). The IC50 in the experiment “cells” was 0.37 µM (active). For `COc1ccc(NC(=O)C(Cc2ccccc2)n2cccc2)cc1` (stereo not drawn), the 50% effective concentration (EC50) in experiment [7] is > 50 µM (active). Regarding `Cc1ccc(S(=O)(=O)NCC(=O)N(CC(=O)NCc2ccco2)Cc2ccc3c(c2)OCO3)cc1`, the EC50 in experiment [8] was 3.4 µM (active). For `O=C1C(Cl)=C(N2CCN(CCO)CC2)C(=O)N1c1ccc(Cl)nc1`, in experiment [9], the IC50 is > 50 µM (inconclusive). With `Cc1nc2c(-c3ccc(F)cc3)c(C)nn2c(C)c1CCC(=O)N1CCC(Cc2ccccc2)CC1`, in experiment [8], the concentration for a half-maximal effect (EC50) is 6.64 µM (active). For `Cc1onc(-c2ccccc2Cl)c1C(=O)Nc1ccc(F)c(F)c1`, the half-maximal effective concentration (EC50) in experiment [10] is > 112 µM (not active); in [8], 5.58 µM (active); in [11], > 112 µM (not active). With `Cc1ncc(N=Nc2ccccc2Cl)c(-c2ccccc2)n1`, the IC50 on Nonstructural protein 1 is 39.1 µM (active).

For the molecule `CCN(CC)c1ccc(C(=C2C=CC(=[N+](CC)CC)C=C2)c2ccc(S(=O)(=O)O)cc2S(=O)(=O)[O-])cc1`, the concentration for half-maximal inhibition (IC50) at Nonstructural protein 1 was 17.7 µM (active). Regarding `Cc1nccn1CC(=O)N/N=C/c1ccccc1O`, on Nonstructural protein 1, the IC50 was 18.4 µM (active). The same measure, in the same setting: under `Cc1c(N2C(=O)/C(=C/c3cccc4ccccc34)SC2=S)c(=O)n(-c2ccccc2)n1C` stands > 100 µM (active). On to `Fc1ccc(CCNCc2ccccc2Cl)cc1`, for which, in [7], the half-maximal effective concentration (EC50) was > 50 µM (active). Take `O=C(Nc1cnc2ccccc2c1)C1COc2ccccc2O1` (stereo not drawn): the half-maximal effective concentration (EC50) was 2.93 µM (active) in [8], < 0.1 µM (active) in experiment [12] and 37.6 µM (active) in the experiment on H4.

With `Cn1c(=O)cc(SCC(=O)N2CCN(C3CCCCC3)CC2)c2ccccc21`, the EC50 in experiment [7] was > 50 µM (active). Also, the IC50 in [13] was > 20 µM (inactive). Regarding `COc1cc(/C=C2/C(=O)NN(c3cccc(F)c3)C2=O)ccc1OC(=O)c1ccco1`, the EC50 in experiment [10] and in experiment [11] was > 112 µM (not active) each time. The half-inhibitory concentration (IC50) in the experiment “cells” is 16.7 µM (active). `Cc1ccc(Cn2c(=N)c(C(=O)NCCN3CCOCC3)cc3c(=O)n4ccccc4nc32)cc1`: in [7], the concentration for a half-maximal effect (EC50) was > 50 µM (active). Take `Nc1nc2ccccc2cc1-c1cccs1`: the EC50 in [7] was > 50 µM (active). As for `CCn1c(SCCOc2ccc(Cl)cc2)nnc1-c1cccs1`, the EC50 was > 260 µM (inactive) in experiment [14] and 5.63 µM (active) in [8]. Take `CN(C)CCCN=C(S)NCC(c1ccc(Cl)cc1Cl)c1c[nH]c2ccccc12` (stereo not drawn): the figures for the EC50 (at Streptokinase A; in [16]; with Streptococcus) were > 150 µM (not active), 5 µM (active) and 15.4 µM (active), respectively. For the same molecule, the IC50 is 65.8 µM (active) at Nonstructural protein 1 and > 20 µM (inactive) in experiment [13]. Also, the half-maximal activity concentration (AC50) in [15] was 6.45 µM (active).
